Results published in patent US20100029599A1, “Indolylamides as modulators of the EP2 receptor” (BAYER SCHERING PHARMA AKTIENGESELLSCHAFT, priority 2008, published 2010).

Legend:
[1] = test system: cumulus-oocyte complexes (cumulus expansion); assay: Cumulus expansion assay in vitro; format: cell-based, mice; conditions: in competition with PGE2
Procedure: Folliculogenesis was induced in immature female mice (strain: CD1 (ICR) from Charles River) at an age of 14-18 days by a single dose (intraperitoneal) of 10 I.U. of PMSG (Pregnant Mare Serum Gonadotropin; Sigma G-4877, lot 68H0909). 47-50 hours after the injection, the ovaries were removed and the cumulus-oocyte complexes were removed. The cumulus complex is not yet expanded at this stage.
The cumulus-oocyte complexes were then incubated with prostaglandin E2 (PGE2) (0.3 μM), vehicle control (ethanol) or test substances for 20-24 hours. Medium: alpha-MEM medium with 0.1 mM IBMX, pyruvates (0.23 mM) glutamines (2 mM), pen/strep 100 IU/ml pen. and 100 μg/ml strep. and HSA (8 mg/ml). Cumulus expansion was then established through the division into four stages (according to Vanderhyden et al. Dev Biol. 1990 August; 140(2):307-317).

[2] = molecular target: T1, EP2 subtype of the human PGE2 receptor (Homo sapiens, UniProt P43116); assay: cellular cAMP agonism assay; format: cell-based; conditions: without PGE2
T1 construct: host or cells: cells in a cell culture plate
Procedure: The binding of PGE2 to the EP2 subtype of the human PGE2 receptor induces activation of membrane-associated adenylate cyclases and leads to the formation of cAMP. In the presence of the phosphodiesterase inhibitor IBMX, cAMP which has accumulated due to this stimulation and been released by cell lysis is employed in a competitive detection method. In this assay, the cAMP in the lysate competes with cAMP-XL665 for binding of an Eu cryptate-labelled anti-cAMP antibody.
The two signals are measured in a suitable measuring instrument with a time lag, i.e. after the background fluorescence has declined.
The substance solutions (0.75 μl) introduced into an into an assay plate and 30% DMSO were dissolved in 16 μl of a KRSB+IBMX stimulation solution (1× Krebs-Ringer Bicarbonate Buffer; Sigma-Aldrich # K-4002; including 750 μM 3-isobutyl-1-methylxanthine Sigma-Aldrich # I-7018), and then 15 μl thereof were transferred into a media-free cell culture plate which has been washed with KRSB shortly beforehand.
After incubation at room temperature (RT; volume: ˜15 μl) for 60 minutes, the reaction was then stopped by adding 5 μl of lysis buffer and incubated at RT for a further 20 min (volume: ˜20 μl). The cell lysate was then transferred into a measuring plate and measured in accordance with the manufacturer's instructions (cyclic AMP kit Cisbio International # 62AMPPEC).

T1 sequence (P43116 whole entry): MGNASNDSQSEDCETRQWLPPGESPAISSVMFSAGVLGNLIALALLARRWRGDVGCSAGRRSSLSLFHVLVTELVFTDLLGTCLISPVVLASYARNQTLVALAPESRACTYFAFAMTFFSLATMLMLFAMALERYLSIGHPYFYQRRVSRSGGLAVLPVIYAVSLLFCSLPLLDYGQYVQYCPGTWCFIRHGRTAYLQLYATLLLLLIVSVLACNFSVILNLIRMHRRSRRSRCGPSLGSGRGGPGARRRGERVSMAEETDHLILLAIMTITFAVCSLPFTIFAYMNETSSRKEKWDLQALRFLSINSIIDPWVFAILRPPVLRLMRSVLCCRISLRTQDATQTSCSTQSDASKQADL

| effect in the cellular agonism test [2] | SMILES | suppression of cumulus expansion ([1]; 5 μM) | suppression of the expansion of the cumulus ([1]; 100-200 μM) |
| --- | --- | --- | --- |
| no inhibition | Cc1[nH]c2c(F)ccc(C)c2c1CCNC(=O)c1cc2ccc(C(=O)NCC(N)=O)cc2[nH]1 [Example 6, 2-N-[2-(7-fluoro-2,4-dimethyl-1H-indol-3-yl)ethyl]-6-N-carbamoylmethyl-1H-indole-2,6-dicarboxamide] | approx. 67% | – |
| – | CC(C)Oc1ccc2c(=O)c3cc(C(=O)O)ccc3oc2c1 [AH 6809, reference compound] | – | approx. 30% |
